From DBAASP
Values after ≈ are worked out from the molar mass of the structure shown.

Legend:
Assay in all cases: ≥ marks a high value that may be exact or a test limit, other limits are often not marked, values filed in µg/mL are converted to µM
Candida albicans = system: Candida albicans
[1] = system: Pseudomonas aeruginosa ATCC 27853
[2] = system: Staphylococcus aureus ATCC 49476
Staphylococcus aureus MR = system: Staphylococcus aureus MR
[3] = system: Staphylococcus aureus ATCC 12493
[4] = system: Enterococcus faecalis NCTC 12697
[5] = system: Escherichia coli NCTC 10418
[6] = system: Escherichia coli ATCC 25726
[7] = system: Staphylococcus aureus ATCC 25923
Bacillus subtilis 168 = system: Bacillus subtilis 168
Leuconostoc lactis = system: Leuconostoc lactis
Escherichia coli ML-35 = system: Escherichia coli ML-35
[8] = system: Salmonella enterica subsp. enterica serovar Typhimurium ATCC 14028
Bacillus megaterium Bm11 = system: Bacillus megaterium Bm11
Staphylococcus xylosus = system: Staphylococcus xylosus
[9] = system: Escherichia coli DH5alpha

Compound	MIC (Candida albicans)	MIC [1]	MIC [2]	MIC (Staphylococcus aureus MR)	further results
CC[C@H](C)[C@H](NC(=O)[C@H](CC(C)C)NC(=O)[C@H](CCCN=C(N)N)NC(=O)[C@H](Cc1cnc[nH]1)NC(=O)[C@H](C)NC(=O)[C@H](C)NC(=O)[C@H](CCCCN)NC(=O)CNC(=O)[C@H](C)NC(=O)[C@H](CO)NC(=O)[C@H](Cc1ccccc1)NC(=O)[C@H](CC(C)C)NC(=O)CNC(=O)CNC(=O)[C@@H](NC(=O)[C@@H](NC(=O)[C@H](Cc1cnc[nH]1)NC(=O)[C@H](Cc1cnc[nH]1)NC(=O)[C@@H](NC(=O)[C@@H](N)Cc1ccccc1)[C@@H](C)CC)[C@@H](C)CC)[C@@H](C)CC)C(=O)N[C@@H](CCCN=C(N)N)C(=O)N[C@@H](CCCN=C(N)N)C(=O)N[C@@H](CCCN=C(N)N)C(=O)N[C@@H](CCCN=C(N)N)C(=O)N[C@@H](CCCN=C(N)N)C(=O)O [FIHHIIGGLFSAGKAAHRLIRRRRR]	43.5 µM (≈ 128 µg/mL)	87.1 µM (≈ 256 µg/mL)	21.8 µM (≈ 64 µg/mL)	21.8 µM (≈ 64 µg/mL)	
CC[C@H](C)[C@H](NC(=O)[C@H](CC(C)C)NC(=O)[C@H](CCCN=C(N)N)NC(=O)[C@H](Cc1cnc[nH]1)NC(=O)[C@H](CCCN=C(N)N)NC(=O)[C@H](C)NC(=O)[C@H](CCCCN)NC(=O)CNC(=O)[C@H](C)NC(=O)[C@H](CO)NC(=O)[C@H](Cc1ccccc1)NC(=O)[C@H](CC(C)C)NC(=O)CNC(=O)CNC(=O)[C@@H](NC(=O)[C@@H](NC(=O)[C@H](Cc1cnc[nH]1)NC(=O)[C@H](Cc1cnc[nH]1)NC(=O)[C@@H](NC(=O)[C@@H](N)Cc1ccccc1)[C@@H](C)CC)[C@@H](C)CC)[C@@H](C)CC)C(=O)N[C@@H](CCCN=C(N)N)C(=O)N[C@@H](CCCN=C(N)N)C(=O)N[C@@H](CCCN=C(N)N)C(=O)N[C@@H](CCCN=C(N)N)C(=O)N[C@@H](CCCN=C(N)N)C(=O)O [FIHHIIGGLFSAGKARHRLIRRRRR]	42.3 µM (≈ 128 µg/mL)	> 169 µM	≥ 169 µM	≥ 169 µM	
CC[C@H](C)[C@H](NC(=O)[C@H](Cc1cnc[nH]1)NC(=O)[C@H](CCCCN)NC(=O)CNC(=O)[C@@H](NC(=O)[C@H](CO)NC(=O)[C@H](Cc1ccccc1)NC(=O)[C@H](CC(C)C)NC(=O)CNC(=O)CNC(=O)[C@@H](NC(=O)[C@@H](NC(=O)[C@H](Cc1cnc[nH]1)NC(=O)[C@H](Cc1cnc[nH]1)NC(=O)[C@@H](NC(=O)[C@@H](N)Cc1ccccc1)[C@@H](C)CC)[C@@H](C)CC)[C@@H](C)CC)C(C)C)C(=O)N[C@@H](Cc1cnc[nH]1)C(=O)N[C@@H](CCCN=C(N)N)C(=O)N[C@@H](CC(C)C)C(=O)N[C@H](C(=O)N[C@@H](CCCN=C(N)N)C(=O)N[C@@H](CCCN=C(N)N)C(=O)N[C@@H](CCCN=C(N)N)C(=O)N[C@@H](CCCN=C(N)N)C(=O)N[C@@H](CCCN=C(N)N)C(=O)O)[C@@H](C)CC [FIHHIIGGLFSVGKHIHRLIRRRRR]	41.6 µM (≈ 128 µg/mL)	41.6 µM (≈ 128 µg/mL)	5.2 µM (≈ 16 µg/mL)	10.4 µM (≈ 32 µg/mL)	
CC(C)C[C@H](NC(=O)[C@H](C)NC(=O)[C@H](Cc1c[nH]c2ccccc12)NC(=O)[C@H](CCCCN)NC(=O)[C@H](CC(C)C)NC(=O)[C@@H](N)Cc1ccccc1)C(=O)N[C@@H](CCCCN)C(=O)N[C@H](C(=O)N[C@@H](C)C(=O)N[C@@H](C)C(=O)N[C@@H](CCCCN)C(N)=O)C(C)C [FLKWALKVAAK]					MIC [3]: ≥ 512 µM; MIC [4]: ≥ 512 µM; MIC [5]: ≥ 512 µM
CC[C@H](C)[C@H](NC(=O)CN)C(=O)N[C@@H](Cc1ccccc1)C(=O)N[C@@H](CO)C(=O)N[C@@H](CCCCN)C(=O)N[C@@H](Cc1ccccc1)C(=O)NCC(=O)NCC(=O)N[C@@H](CCCCN)C(=O)N[C@@H](C)C(=O)N[C@H](C(=O)N[C@@H](CCCCN)C(=O)N[C@@H](CC(N)=O)C(=O)N[C@@H](CC(C)C)C(=O)N[C@@H](Cc1ccccc1)C(=O)N[C@H](C(=O)N[C@@H](CCCCN)C(=O)NCC(=O)N[C@@H](C)C(=O)N[C@@H](CCCCN)C(=O)N[C@@H](CC(N)=O)C(=O)N[C@H](C(=O)NCC(=O)N[C@@H](CCCCN)C(=O)N[C@@H](CCC(=O)O)C(=O)N[C@H](C(=O)NCC(=O)N[C@@H](CCSC)C(=O)N[C@@H](CC(=O)O)C(=O)N[C@H](C(=O)N[C@H](C(=O)N[C@@H](CCCN=C(N)N)C(=O)N[C@H](C(=O)NCC(=O)N[C@H](C(=O)N[C@@H](CC(=O)O)C(=O)N[C@H](C(=O)N[C@@H](C)C(=O)NCC(=O)N[C@H]1CSSC[C@@H](C(=O)O)NC(=O)[C@H](CCC(=O)O)NC(=O)CNC(=O)[C@H](CCCCN)NC(=O)[C@H]([C@@H](C)CC)NC(=O)[C@H](CCCCN)NC1=O)C(C)C)[C@@H](C)CC)[C@@H](C)O)[C@@H](C)CC)C(C)C)C(C)C)[C@@H](C)CC)[C@@H](C)CC)[C@@H](C)CC [GIFSKFGGKAIKNLFIKGAKNIGKEVGMDVIRTGIDVAGCKIKGEC]					MIC [6]: 13 µM (≈ 62.5 µg/mL); MIC [7]: 13 µM (≈ 62.5 µg/mL)
CC[C@H](C)[C@H](NC(=O)[C@H](CCCCN)NC(=O)[C@H](CC(C)C)NC(=O)[C@H](Cc1ccccc1)NC(=O)[C@H](CCCCN)NC(=O)[C@H](CCCCN)NC(=O)[C@H](Cc1ccccc1)NC(=O)[C@H](C)NC(=O)[C@H](CCCCN)NC(=O)[C@H](CCCCN)NC(=O)[C@H](Cc1ccccc1)NC(=O)[C@H](CC(C)C)NC(=O)[C@H](CCCCN)NC(=O)[C@H](Cc1c[nH]c2ccccc12)NC(=O)[C@H](CCCCN)NC(=O)CN)C(=O)N[C@@H](CC(C)C)C(=O)N[C@@H](C)C(=O)N[C@@H](CS)C(=O)O [GKWKLFKKAFKKFLKILAC]					MIC (Bacillus subtilis 168): 3.2 µM (≈ 7.35 µg/mL)
CC[C@H](C)[C@H](NC(=O)[C@H](CO)NC(=O)[C@H](CO)NC(=O)[C@@H](NC(=O)[C@H](CC(C)C)NC(=O)CN)C(C)C)C(=O)NCC(=O)N[C@@H](CCCCN)C(=O)N[C@@H](C)C(=O)N[C@@H](CC(C)C)C(=O)NCC(=O)NCC(=O)N[C@@H](CC(C)C)C(=O)N[C@@H](CC(C)C)C(=O)N[C@H](C(=O)N[C@@H](CC(=O)O)C(=O)N[C@H](C(=O)N[C@H](C(=O)N[C@@H](CCCCN)C(=O)N[C@@H](CO)C(=O)N[C@@H](CCCCN)C(=O)NCC(=O)N[C@@H](CCC(N)=O)C(=O)N1CCC[C@H]1C(=O)N[C@@H](C)C(=O)O)C(C)C)C(C)C)C(C)C [GLVSSIGKALGGLLVDVVKSKGQPA]					MIC (Leuconostoc lactis): 20.9 µM (≈ 50 µg/mL)
CC(C)C[C@H](NC(=O)[C@H](CCCN=C(N)N)NC(=O)[C@H](CCCN=C(N)N)NC(=O)[C@H](Cc1ccccc1)NC(=O)[C@H](CCCN=C(N)N)NC(=O)CN)C(=O)NCC(=O)N[C@@H](CCCN=C(N)N)C(=O)N[C@@H](CCCCN)C(=O)N[C@@H](Cc1ccccc1)C(=O)N[C@@H](CCCCN)C(=O)N[C@@H](CCCCN)C(=O)N[C@@H](CC(C)C)C(=O)N[C@@H](Cc1ccccc1)C(=O)N[C@@H](CCCCN)C(=O)N[C@@H](CCCCN)C(=O)N[C@@H](Cc1ccc(O)cc1)C(=O)NCC(=O)N1CCC[C@H]1C(=O)O [GRFRRLGRKFKKLFKKYGP]					MIC (Escherichia coli ML-35): 4 µM (≈ 9.53 µg/mL); MIC [7]: 8 µM (≈ 19.1 µg/mL); MIC [8]: 8 µM (≈ 19.1 µg/mL); MIC (Bacillus megaterium Bm11): 8 µM (≈ 19.1 µg/mL)
CC[C@H](C)[C@H](N)C(=O)N[C@H](C(=O)NCC(=O)NCC(=O)N[C@@H](CC(C)C)C(=O)N[C@@H](Cc1ccccc1)C(=O)N[C@@H](CO)C(=O)N[C@@H](C)C(=O)NCC(=O)N[C@@H](CCCCN)C(=O)N[C@@H](C)C(=O)N[C@H](C(=O)N[C@@H](Cc1cnc[nH]1)C(=O)N[C@@H](CCCN=C(N)N)C(=O)N[C@@H](CC(C)C)C(=O)N[C@H](C(=O)N[C@@H](CCCN=C(N)N)C(=O)N[C@@H](CCCN=C(N)N)C(=O)N[C@@H](CCCN=C(N)N)C(=O)N[C@@H](CCCN=C(N)N)C(=O)N[C@@H](CCCN=C(N)N)C(=O)O)[C@@H](C)CC)[C@@H](C)CC)[C@@H](C)CC [IIGGLFSAGKAIHRLIRRRRR]	26.2 µM (≈ 64 µg/mL)	105 µM (≈ 256 µg/mL)	≥ 52.3 µM	26.2 µM (≈ 64 µg/mL)	
CC(C)C[C@H](NC(=O)[C@H](CC(C)C)NC(=O)[C@H](CC(C)C)NC(=O)[C@H](CC(C)C)NC(=O)[C@H](CC(C)C)NC(=O)[C@H](CCCCN)NC(=O)[C@H](CCCCN)NC(=O)[C@@H](N)CCCCN)C(=O)N[C@@H](CCCCN)C(=O)N[C@@H](CCCCN)C(=O)N[C@@H](CCCCN)C(=O)O [KKKLLLLLKKK]					MIC (Staphylococcus xylosus): 8 µM (≈ 10.8 µg/mL); MIC [9]: 16 µM (≈ 21.6 µg/mL)
CC[C@H](C)[C@H](NC(=O)[C@H](CS)NC(=O)[C@H](CCSC)NC(=O)[C@H](C)NC(=O)[C@H](CCCN=C(N)N)NC(=O)[C@@H](N)CC(C)C)C(=O)N[C@@H](CCCCN)C(=O)N[C@@H](Cc1c[nH]c2ccccc12)C(=O)N[C@@H](Cc1c[nH]c2ccccc12)C(=O)N[C@@H](CO)C(=O)NCC(=O)N[C@@H](CCCCN)C(=O)N[C@@H](Cc1cnc[nH]1)C(=O)N1CCC[C@H]1C(=O)N[C@@H](CCCCN)C(=O)O [LRAMCIKWWSGKHPK]					MIC (Bacillus subtilis 168): 7 µM (≈ 12.9 µg/mL)
